In ChEMBL document CHEMBL1131736, “Lipase-catalyzed protection of the hydroxy groups of the nucleosides inosine and 2'-deoxyinosine: a new chemoenzymatic synthesis of the antiviral drug 2',3'-dideoxyinosine” (Bioorg Med Chem Lett, 1999):
Active and inactive are the calls of the source. No cut-off for these calls is given here.

Test system: Human immunodeficiency virus 1
Test: Compound was tested for antiretroviral activity against HIV; compound found active.
Assay type: functional, organism-based

O=c1[nH]cnc2c1ncn2[C@H]1CC[C@@H](CO)O1
Activity: Active
